Laboratory results published in US20030083339A1, “Compositions and methods for treating colorectal polyps and cancer” (priority 2001, published 2003).
Marks after values point to notes of the source that are not given here. Each block holds one molecule with its values, some of them ahead of it.

Experiments:
colon tumors [1] = assay: AOM-induced colon tumors in F2 mice crossbred with SWR/J (Table 4); format: in vivo, mouse; settings: AOM 10 mg/kg I.P. 4 consecutive weeks, 26 weeks
Procedure: . […] The colons and livers were macroscopically examined. […] Tumor size was measured with a caliper.
In Example 2, clear-cut results were obtained that the AT2 receptor is involved in AOM-induced colon cancer. A concern was that this might be true only in the mouse strain crossbred from 129/OIa and C57BL/6J mouse strains. In order to overcome this problem, the AT2-KO mice in this crossbred strain were back-crossed with SWR/J mice, whose susceptibility to AOM is established. During the course of back-crossing, similar experiments were performed as described in Example 1, using F2 male wild and AT2-KO mice.

hepatic CYP2E1 = hepatic CYP2E1 protein expression after AOM, Western blot of liver microsomes
Procedure: AT2 receptor antagonist PD123,319 treatment (15 mg/kg/12 h, gavage administration, and 50 μg/ml in drinking tap water) was initiated 3 h prior to the AOM treatment. The liver was dissected out and the microsomal fractions were subjected to SDS-polyacrylamide gel electrophoresis followed by immunoblotting with anti-human CYP2E1 antibodies.
AT2 receptor blocker PD123319 treatment (15 mg/kg/12 h, gavage administration and 50 μg/ml in drinking tap water) was initiated 3 h prior to the AOM treatment. The control group for the AOM treatment received saline. Mice for the short term study were sacrificed 6 h or 24 h after AOM treatment. […] The remaining tissues were frozen in liquid nitrogen and stored at −80° C.
Tissues were individually homogenized by a Polytron homogenizer in three volumes of 1 mM Tris-HCl buffer, pH 7.5, containing 1 mM EDTA, 0.25 M sucrose and protease inhibitor cocktail. The supernatant from 10,000× g centrifugation of the homogenate for 15 min was further centrifuged at 100,000× g for 1 h. The microsomal membranes were suspended in 100 mM NaH2PO4, pH 7.4, 10 mM MgCl2, 20% glycerol, and protease inhibitor cocktail, and 25 μg of the membrane protein was subjected to Western blot analysis.
The liver microsomal membranes were lysed with 0.5 ml lysis buffer (10 mM Tris-HCl (pH 7.4), 1% SDS). After sonication, the lysate was boiled for 5 min. […]

[2] = test system: O^6-methylguanine adduct in colon DNA; assay: colonic O^6-methylguanine adduct level after AOM, immuno-slot-blot
Procedure: AT2 receptor blocker PD123319 treatment (15 mg/kg/12 h, gavage administration and 50 μg/ml in drinking tap water) was initiated 3 h prior to the AOM treatment. The control group for the AOM treatment received saline. Mice for the short term study were sacrificed 6 h or 24 h after AOM treatment.
Immediately after the mice were sacrificed by cervical dislocation, the colon was excised, washed with phosphate-buffered saline, divided into proximal and distal segments, and snap-frozen in liquid N2. Small portions of each lobe of the liver were also removed and frozen in the same manner. Tissue was digested in a lysis buffer consisting of 10 mM Tris-HCl, pH 7.4, 1 mM EDTA, 1% SDS, 5× SSC and 0.2 mg/ml Proteinase K. DNA was extracted by phenol/chloroform/isoamyl alcohol and precipitated with ice-cold ethanol by standard protocols. Samples were then treated with RNase A (50 mg/ml) and DNA was fragmented by sonication. The concentration of DNA was determined by the absorbance at 260 nm.
DNA samples were heat-denatured for 10 min, immediately chilled on ice, and mixed with an equal volume of 2 M ammonium acetate. […] Relative blot intensities were measured by densitometry using a Fluor-S image analyzer (Bio-Rad Laboratories, Inc., Hercules, Calif., United States of America).

colon tumors [3] = assay: AOM-induced colon tumors in mouse strain crossbred from 129/Ola and C57BL/6J (Table 3); format: in vivo; settings: 23 weeks; for Body Weight / Colon Tumors Multiplicity = average number of tumors/mouse / Colon Tumors Prevalence (%) = percent of tumor-bearing mice / Colon Tumors Total Number: AOM 10 mg/kg I.P. 4 consecutive weeks
Procedure: The colons and livers were macroscopically examined. […] Tumor size was measured with a caliper. […] In addition, the size of the tumors in wild type mice was large (over 55% of tumors 22 mm^3). The tumors were predominantly observed in the lower half of the descending colon.

[4] = test system: cytochrome P450 proteins (CYP1A1, 1A2 and 2E1) in liver; assay: inducibility of CYP1A1, 1A2 and 2E1 in the liver after AOM; format: in vivo, mouse; settings: AOM 15 mg/kg bolus I.P.
Excerpt: Anti-rabbit anti-human CYP1A1/1A2 and CYP2E1 antisera were obtained from Dr. F. P. Guengerich, Department of Biochemistry, Vanderbilt University. See Soucek et al., (1995) Biochem. 34:16013-16021; Shimada et al., (1992) Mol. Pharmacol. 41:856-864. The cross-reactivities of these antibodies to mouse CYP1A1/1A2 and 2E1 have been characterized.
The inducibilities of CYP1A1, 1A2 and 2E1 in the liver were exaimed.

[5] = chronic administration, 30 mg/kg/day, rats; cited from earlier work
[6] = test system: colon polyp or adenocarcinoma; assay: Example 1: course of oral PD123319 treatment of colon polyps and colorectal adenocarcinoma; format: in vivo
Procedure: PD123319, an angiotensin II receptor (AT2 receptor) antagonist, is available in 1-mg, 10-mg, 50-mg, 100-mg, 250 mg, 500 mg, and 1000 mg tablets for oral administration and in 1-mg, 10-mg, 50-mg, 100-mg, 500 mg, 1000 mg, 5000 mg, and 10,000 mg suppositories for rectal administration.
PD123319 is indicated for the treatment of colorectal cancer including non-malignant polyps of the colon and colorectal adenocarcinoma. There are no known contradictions to treatment with PD123319.
A 12-20 week course of therapy yields a remission of adenocarcinoma (e.g., tumor number and/or volume) in greater than 79% of individuals that are diagnosed with at least one adenocarcinoma. Total dose per day is determined by severity (number and/or cancer stage) as assessed by a treating veterinarian or physician. A preferred course of treatment for a patient with colorectal polyps is 10-30 mg (medication) per kg (body weight) per day. A preferred course of treatment for a patient with colorectal adenocarcinoma is 20-30 mg/kg/day. In certain cases, a course of treatment for a patient with colorectal adenocarcinoma is 100 mg/kg/day administered orally or as a suppository. A preferred maintenance or chemoinhibitory course of therapy is typically 1.0 to 10 mg/kg. […]

AT2 receptor = biological target: T1, AT2 receptor (Mus musculus, UniProt P35374); settings: read-out: IC50 for the inhibition of ligand-receptor binding; cited from earlier work
T1 sequence (P35374 1-363): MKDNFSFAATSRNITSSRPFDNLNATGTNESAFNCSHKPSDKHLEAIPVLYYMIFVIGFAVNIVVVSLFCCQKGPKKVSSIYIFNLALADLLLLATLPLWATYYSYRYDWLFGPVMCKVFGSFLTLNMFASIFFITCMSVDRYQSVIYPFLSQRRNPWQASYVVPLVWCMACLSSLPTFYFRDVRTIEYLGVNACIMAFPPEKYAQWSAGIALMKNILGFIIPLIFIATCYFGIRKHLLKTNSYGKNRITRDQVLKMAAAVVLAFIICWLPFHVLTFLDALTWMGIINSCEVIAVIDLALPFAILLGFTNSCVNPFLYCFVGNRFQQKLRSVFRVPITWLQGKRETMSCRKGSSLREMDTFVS

[7] = daily administration of the pressor dose (10-50 mg/kg/day), man and animals; cited from earlier work
[8] = biological target: T2, mouse angiotensin II type 2 receptor (mouse, UniProt P35374 1-363); assay: radioligand-receptor binding on mouse liver and colon plasma membranes
T2 construct: Native receptor in mouse tissue (liver and colon plasma membranes, liver nuclei), not a recombinant construct; also called AT2 receptor; AT2
T2 sequence: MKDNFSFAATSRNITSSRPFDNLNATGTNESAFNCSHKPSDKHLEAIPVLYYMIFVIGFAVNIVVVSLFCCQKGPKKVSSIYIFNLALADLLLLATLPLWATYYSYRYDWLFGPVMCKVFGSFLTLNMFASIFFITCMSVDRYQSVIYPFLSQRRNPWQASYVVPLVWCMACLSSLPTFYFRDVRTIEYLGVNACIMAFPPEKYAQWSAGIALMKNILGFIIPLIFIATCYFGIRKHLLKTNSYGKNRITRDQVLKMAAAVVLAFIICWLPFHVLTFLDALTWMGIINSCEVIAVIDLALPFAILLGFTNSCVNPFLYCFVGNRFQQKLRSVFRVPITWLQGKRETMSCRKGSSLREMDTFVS

[9] = AOM 10 mg/kg bolus I.P., both wild type and AT2-null mice

Colon Tumors Multiplicity (colon tumors [1]; AT2-KO F2 male mice): 6.3
Colon Tumors Prevalence (%) (colon tumors [1]; AT2-KO F2 male mice): 100.0%
Colon Tumors Total Number (colon tumors [1]; AT2-KO F2 male mice): 50
Colon Tumors Volume (mm^3) = total tumor volume/number of tumors (colon tumors [1]; AT2-KO F2 male mice): 19.8 ± 3.0 mm^3
Colon Tumors Multiplicity (colon tumors [1]; Control (wild) F2 male mice): 12.0
Colon Tumors Prevalence (%) (colon tumors [1]; Control (wild) F2 male mice): 100.0%
Colon Tumors Total Number (colon tumors [1]; Control (wild) F2 male mice): 96
Colon Tumors Volume (mm^3) = total tumor volume/number of tumors (colon tumors [1]; Control (wild) F2 male mice): 36.8 ± 3.2* mm^3
effect on CYP2E1 protein expression in liver (hepatic CYP2E1; [9]): significantly downregulated
effect on colonic O^6-methylguanine levels [2, 9]: time-dependently increased
Colon Tumors Multiplicity = average number of tumors/mouse (colon tumors [3]; AT2-KO mice): 0.11
Colon Tumors Prevalence (%) = percent of tumor-bearing mice (colon tumors [3]; AT2-KO mice): 11.1%
Colon Tumors Total Number (colon tumors [3]; AT2-KO mice): 1
Colon Tumors Multiplicity = average number of tumors/mouse (colon tumors [3]; Control (wild type) mice): 7.38
Colon Tumors Prevalence (%) = percent of tumor-bearing mice (colon tumors [3]; Control (wild type) mice): 100%
Colon Tumors Total Number (colon tumors [3]; Control (wild type) mice): 59
share of tumors 22 mm^3 (large tumors) (colon tumors [3]; wild type mice, AOM 10 mg/kg I.P. 4 weekly): over 55%
effect on hepatic cytochrome P450 levels ([4]; AT2-KO mice, 24 h after injection): decreased substantially
effect on levels of cytochrome P450 proteins in liver ([4]; wild type mouse liver): significantly increased
Molecule: CN=[N+](C)[O-] [AOM, azoxymethane]
Body Weight (colon tumors [3]; AT2-KO mice): 36.5 ± 1.6 g
Body Weight (colon tumors [3]; Control (wild type) mice): 36.5 ± 4.3 g

effect on AOM-induced CYP2E1 downregulation in the liver (hepatic CYP2E1; wild type mice, pretreatment 15 mg/kg/12 h by gavage and 0.35 mg/kg/h in drinking water, AOM 10 mg/kg I.P., 24 h): significantly attenuated
Molecule: Cc1cc(Cn2cnc3c2C[C@@H](C(=O)O)N(C(=O)C(c2ccccc2)c2ccccc2)C3)ccc1N(C)C [PD123319]
effect on AOM-induced increase in the colonic O^6-methylguanine level ([2]; wild type mice, 15 mg/kg/12h by gavage and 0.35 mg/kg/h in drinking water, 24 h after AOM 10 mg/kg): markedly attenuated
adverse effects [5]: does not show any adverse effects
colon polyp or adenocarcinoma number as determined by endoscopy ([6]; 4-8 week course, oral administration): significant reduction
remission of adenocarcinoma (tumor number and/or volume) ([6]; 12-20 week course of therapy, individuals diagnosed with at least one adenocarcinoma): greater than 79 % of individuals
IC50 (AT2 receptor): 10 nM

Molecule: CCCCc1nc(Cl)c(CO)n1Cc1ccc(-c2ccccc2-c2nn[nH]n2)cc1 [losartan]
side effects [7]: no serious side effects

binding result [8]: binds
Molecule: XRVYIHPI (sarcosine at position 1 in place of Asp; 125I label, X stands for sarcosine) [[^125I]Sar^1·Ile^8·Ang II]
